biological target: recombinant human AChE (Homo sapiens, UniProt P22303); experiment: Reversible inhibition of AChE, Ellman method, enzyme-inhibitor dissociation constants; type: biochemical; settings: ± standard error; ATCh substrate, 25 °C, pH 7.4
Method: (§1) As a source of BChE, a purified human BChE, and as AChE, a recombinant human AChE was used, both enzymes kindly provided by Dr. F. Nachon (Département de Toxicologie, Armed Forces Biomedical Research Institute, France). The concentrated stocks of enzymes (BChE: 5.6 µM; AChE: 0.20 µM) were diluted in a phosphate sodium buffer 0.1 M (pH 7.4) containing 0.1% BSA before starting the experiments.
(§2) Enzyme activities were measured spectrophotometrically by the Ellman method at […] using 0.30 mM DTNB as thiol reagent, ATCh as substrate and water in 0.1 M phosphate buffer, pH 7.4. For the inhibition measurements, the reaction mixture contained tested compounds instead of water. […] Measurements were done at 25 °C on a Tecan Infinite M200Pro plate reader (Austria). A detailed description of measurement protocol was described previously.
(§3) The reversible inhibition of BChE and AChE by tested compounds was measured by determining the decrease of enzyme activity towards ATCh in their presence. The activities of the enzymes were measured at different substrate concentrations ([S]; 0.050–0.50 mM) in the absence (v0) and presence (vi) of the given tested compounds concentration ([I]; 0.050–200 µM, depending on the compound) selected to inhibit the enzymes for 20–80%. At least three concentrations of inhibitors for each substrate concentration were used in at least three experiments. The apparent dissociation inhibition constant (Ki,app) was calculated applying the Hunter-Downs equation and linear regression analysis (1):(1) Ki,app=vi/v0−vi⋅I=KI+KI/KS⋅S where y-intercept determines the enzyme-inhibitor dissociation constants (K(I)), while x-intercept determines the enzyme-substrate dissociation constant, K(S). The determination of kinetic constants was carried out using the GraphPadPrism 6.0 program (GraphPad Software, San Diego, CA, USA).

Chain of recombinant human AChE (P22303 32-614): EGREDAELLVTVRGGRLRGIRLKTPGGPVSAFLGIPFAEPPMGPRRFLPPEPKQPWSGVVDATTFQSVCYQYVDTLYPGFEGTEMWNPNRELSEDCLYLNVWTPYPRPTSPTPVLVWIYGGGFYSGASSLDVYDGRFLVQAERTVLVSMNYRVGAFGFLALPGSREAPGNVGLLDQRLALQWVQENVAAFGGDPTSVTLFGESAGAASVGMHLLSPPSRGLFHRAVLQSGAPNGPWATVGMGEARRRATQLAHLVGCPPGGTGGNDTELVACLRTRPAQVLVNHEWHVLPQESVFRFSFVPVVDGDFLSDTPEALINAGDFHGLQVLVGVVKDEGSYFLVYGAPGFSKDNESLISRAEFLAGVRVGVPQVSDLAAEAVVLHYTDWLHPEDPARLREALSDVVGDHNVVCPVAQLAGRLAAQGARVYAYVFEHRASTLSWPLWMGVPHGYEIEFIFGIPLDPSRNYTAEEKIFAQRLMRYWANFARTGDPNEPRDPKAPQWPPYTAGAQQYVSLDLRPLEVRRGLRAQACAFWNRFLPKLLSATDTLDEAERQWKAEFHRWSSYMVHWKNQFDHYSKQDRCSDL

| SMILES | Ki [µM] |
| --- | --- |
| C=CC1C[N+]2(Cc3cccc(F)c3F)CCC1C[C@H]2[C@H](O)c1ccnc2ccccc12 (stereo partly drawn) [CD 2,3F] | 19 ± 1 |
| C=CC1C[N+]2(Cc3ccc(F)cc3F)CCC1C[C@H]2[C@H](O)c1ccnc2ccccc12 (stereo partly drawn) [CD 2,4F] | 6.4 ± 0.3 |
| C=CC1C[N+]2(Cc3c(F)cccc3F)CCC1C[C@H]2[C@H](O)c1ccnc2ccccc12 (stereo partly drawn) [CD 2,6F] | 7.7 ± 0.5 |
| C=CC1C[N+]2(Cc3c(F)cccc3Cl)CCC1C[C@H]2[C@H](O)c1ccnc2ccccc12 (stereo partly drawn) [CD 2Cl-6F, N-(2-chloro-6-fluorobenzyl)cinchonidinium bromide] | 9.9 ± 0.8 |
| C=CC1C[N+]2(Cc3ccc(Br)cc3F)CCC1C[C@H]2[C@H](O)c1ccnc2ccccc12 (stereo partly drawn) [CD 2F-4Br, N-(2-fluoro-4-bromobenzyl)cinchonidinium bromide] | 7.2 ± 0.4 |
| C=CC1C[N+]2(Cc3c(F)cccc3C(F)(F)F)CCC1C[C@H]2[C@H](O)c1ccnc2ccccc12 (stereo partly drawn) [CD 2F-6CF3, N-(2-fluoro-6-trifluoromethylbenzyl)cinchonidinium bromide] | 35 ± 4 |
| C=CC1C[N+]2(Cc3ccccc3F)CCC1C[C@H]2[C@H](O)c1ccnc2ccccc12 (stereo partly drawn) [CD 2F] | 33 ± 1 |
| C=CC1C[N+]2(Cc3ccc(F)c(F)c3)CCC1C[C@H]2[C@H](O)c1ccnc2ccccc12 (stereo partly drawn) [CD 3,4F] | 13 ± 1 |
| C=CC1C[N+]2(Cc3cc(F)cc(F)c3)CCC1C[C@H]2[C@H](O)c1ccnc2ccccc12 (stereo partly drawn) [CD 3,5F] | 10 ± 1 |
| C=CC1C[N+]2(Cc3cccc(C(F)(F)F)c3)CCC1C[C@H]2[C@H](O)c1ccnc2ccccc12 (stereo partly drawn) [CD 3CF3] | 34 ± 1 |
| C=CC1C[N+]2(Cc3cccc(F)c3)CCC1C[C@H]2[C@H](O)c1ccnc2ccccc12 (stereo partly drawn) [CD 3F, N-(meta-fluorobenzyl)cinchonidinium bromide] | 40 ± 2 |
| C=CC1C[N+]2(Cc3cccc(OC(F)(F)F)c3)CCC1C[C@H]2[C@H](O)c1ccnc2ccccc12 (stereo partly drawn) [CD 3OCF3] | 8.2 ± 1.1 |
| C=CC1C[N+]2(Cc3ccc(C(F)(F)F)cc3)CCC1C[C@H]2[C@H](O)c1ccnc2ccccc12 (stereo partly drawn) [CD 4CF3] | 21 ± 1 |
| C=CC1C[N+]2(Cc3ccc(F)cc3)CCC1C[C@H]2[C@H](O)c1ccnc2ccccc12 (stereo partly drawn) [CD 4F] | 69 ± 3 |
| C=CC1C[N+]2(Cc3ccc(OC(F)(F)F)cc3)CCC1C[C@H]2[C@H](O)c1ccnc2ccccc12 (stereo partly drawn) [CD 4OCF3] | 7.3 ± 0.5 |
| C=CC1C[N+]2(Cc3ccccc3)CCC1C[C@H]2[C@H](O)c1ccnc2ccccc12 (stereo partly drawn) [CD Bzl] | 15 ± 2 |
| C=CC1C[N+]2(Cc3cccc(F)c3F)CCC1C[C@@H]2[C@@H](O)c1ccnc2ccccc12 (stereo partly drawn) [CN 2,3F, N-(2,3-difluorobenzyl)cinchoninium bromide] | 46 ± 3 |
| C=CC1C[N+]2(Cc3ccc(F)cc3F)CCC1C[C@@H]2[C@@H](O)c1ccnc2ccccc12 (stereo partly drawn) [CN 2,4F, N-(2,4-difluorobenzyl)cinchoninium bromide] | 27 ± 1 |
| C=CC1C[N+]2(Cc3c(F)cccc3F)CCC1C[C@@H]2[C@@H](O)c1ccnc2ccccc12 (stereo partly drawn) [CN 2,6F, N-(2,6-difluorobenzyl)cinchoninium bromide] | 30 ± 2 |

biological target: purified human BChE (Homo sapiens, UniProt P06276); experiment: Reversible inhibition of BChE, Ellman method, enzyme-inhibitor dissociation constants; type: biochemical; settings: ratio > 1: higher affinity toward CD over CN pseudo-enantiomer
Method: as §1, §2, §3

Chain of purified human BChE (P06276 29-602): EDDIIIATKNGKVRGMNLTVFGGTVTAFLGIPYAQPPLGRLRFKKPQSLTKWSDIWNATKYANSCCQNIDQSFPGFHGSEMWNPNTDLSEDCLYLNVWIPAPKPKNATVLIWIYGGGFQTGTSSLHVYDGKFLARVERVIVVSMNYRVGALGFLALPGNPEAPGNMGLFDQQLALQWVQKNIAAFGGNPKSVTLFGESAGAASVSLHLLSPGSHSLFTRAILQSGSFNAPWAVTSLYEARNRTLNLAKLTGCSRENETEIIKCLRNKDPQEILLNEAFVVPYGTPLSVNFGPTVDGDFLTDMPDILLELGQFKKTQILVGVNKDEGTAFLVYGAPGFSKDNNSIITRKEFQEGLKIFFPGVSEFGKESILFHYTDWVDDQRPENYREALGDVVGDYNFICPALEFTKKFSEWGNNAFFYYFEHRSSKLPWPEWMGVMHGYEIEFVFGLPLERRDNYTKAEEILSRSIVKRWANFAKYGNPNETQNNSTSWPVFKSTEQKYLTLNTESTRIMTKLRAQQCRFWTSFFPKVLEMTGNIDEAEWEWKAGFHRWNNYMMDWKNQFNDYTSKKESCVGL

| SMILES | Stereoselectivity Ki(CN/CD) BChE |
| --- | --- |
| C=CC1C[N+]2(Cc3cc(F)cc(F)c3)CCC1C[C@H]2[C@H](O)c1ccnc2ccccc12 (stereo partly drawn) [CD 3,5F] | 78 |

same assay, conditions: stated in text as around

| SMILES | Ki [µM] |
| --- | --- |
| C=CC1C[N+]2(Cc3cc(F)cc(F)c3)CCC1C[C@H]2[C@H](O)c1ccnc2ccccc12 (stereo partly drawn) [CD 3,5F] | ~0.076 |
| C=CC1C[N+]2(Cc3cccc(F)c3)CCC1C[C@H]2[C@H](O)c1ccnc2ccccc12 (stereo partly drawn) [CD 3F, N-(meta-fluorobenzyl)cinchonidinium bromide] | ~0.076 |

same assay, conditions: times higher preference for BChE over AChE

| SMILES | SI, selective index Ki(AChE)/Ki(BChE) |
| --- | --- |
| C=CC1C[N+]2(Cc3cccc(F)c3F)CCC1C[C@H]2[C@H](O)c1ccnc2ccccc12 (stereo partly drawn) [CD 2,3F] | 25 |
| C=CC1C[N+]2(Cc3ccc(F)cc3F)CCC1C[C@H]2[C@H](O)c1ccnc2ccccc12 (stereo partly drawn) [CD 2,4F] | 1.1 |
| C=CC1C[N+]2(Cc3c(F)cccc3F)CCC1C[C@H]2[C@H](O)c1ccnc2ccccc12 (stereo partly drawn) [CD 2,6F] | 0.77 |
| C=CC1C[N+]2(Cc3c(F)cccc3Cl)CCC1C[C@H]2[C@H](O)c1ccnc2ccccc12 (stereo partly drawn) [CD 2Cl-6F, N-(2-chloro-6-fluorobenzyl)cinchonidinium bromide] | 1.9 |
| C=CC1C[N+]2(Cc3ccc(Br)cc3F)CCC1C[C@H]2[C@H](O)c1ccnc2ccccc12 (stereo partly drawn) [CD 2F-4Br, N-(2-fluoro-4-bromobenzyl)cinchonidinium bromide] | 10 |
| C=CC1C[N+]2(Cc3c(F)cccc3C(F)(F)F)CCC1C[C@H]2[C@H](O)c1ccnc2ccccc12 (stereo partly drawn) [CD 2F-6CF3, N-(2-fluoro-6-trifluoromethylbenzyl)cinchonidinium bromide] | 6.1 |
| C=CC1C[N+]2(Cc3ccccc3F)CCC1C[C@H]2[C@H](O)c1ccnc2ccccc12 (stereo partly drawn) [CD 2F] | 40 |
| C=CC1C[N+]2(Cc3ccc(F)c(F)c3)CCC1C[C@H]2[C@H](O)c1ccnc2ccccc12 (stereo partly drawn) [CD 3,4F] | 10 |
| C=CC1C[N+]2(Cc3cc(F)cc(F)c3)CCC1C[C@H]2[C@H](O)c1ccnc2ccccc12 (stereo partly drawn) [CD 3,5F] | 123 |
| C=CC1C[N+]2(Cc3cccc(C(F)(F)F)c3)CCC1C[C@H]2[C@H](O)c1ccnc2ccccc12 (stereo partly drawn) [CD 3CF3] | 14 |
| C=CC1C[N+]2(Cc3cccc(F)c3)CCC1C[C@H]2[C@H](O)c1ccnc2ccccc12 (stereo partly drawn) [CD 3F, N-(meta-fluorobenzyl)cinchonidinium bromide] | 533 |
| C=CC1C[N+]2(Cc3cccc(OC(F)(F)F)c3)CCC1C[C@H]2[C@H](O)c1ccnc2ccccc12 (stereo partly drawn) [CD 3OCF3] | 1.1 |
| C=CC1C[N+]2(Cc3ccc(C(F)(F)F)cc3)CCC1C[C@H]2[C@H](O)c1ccnc2ccccc12 (stereo partly drawn) [CD 4CF3] | 11 |
| C=CC1C[N+]2(Cc3ccc(F)cc3)CCC1C[C@H]2[C@H](O)c1ccnc2ccccc12 (stereo partly drawn) [CD 4F] | 46 |
| C=CC1C[N+]2(Cc3ccc(OC(F)(F)F)cc3)CCC1C[C@H]2[C@H](O)c1ccnc2ccccc12 (stereo partly drawn) [CD 4OCF3] | 0.96 |
| C=CC1C[N+]2(Cc3ccccc3)CCC1C[C@H]2[C@H](O)c1ccnc2ccccc12 (stereo partly drawn) [CD Bzl] | 200 |
| C=CC1C[N+]2(Cc3cccc(F)c3F)CCC1C[C@@H]2[C@@H](O)c1ccnc2ccccc12 (stereo partly drawn) [CN 2,3F, N-(2,3-difluorobenzyl)cinchoninium bromide] | 4.8 |
| C=CC1C[N+]2(Cc3ccc(F)cc3F)CCC1C[C@@H]2[C@@H](O)c1ccnc2ccccc12 (stereo partly drawn) [CN 2,4F, N-(2,4-difluorobenzyl)cinchoninium bromide] | 4.5 |
| C=CC1C[N+]2(Cc3c(F)cccc3F)CCC1C[C@@H]2[C@@H](O)c1ccnc2ccccc12 (stereo partly drawn) [CN 2,6F, N-(2,6-difluorobenzyl)cinchoninium bromide] | 5.8 |

same assay, conditions: ± standard error; ATCh substrate, 25 °C, pH 7.4

| SMILES | Ki [µM] |
| --- | --- |
| C=CC1C[N+]2(Cc3cccc(F)c3F)CCC1C[C@H]2[C@H](O)c1ccnc2ccccc12 (stereo partly drawn) [CD 2,3F] | 0.75 ± 0.03 |
| C=CC1C[N+]2(Cc3ccc(F)cc3F)CCC1C[C@H]2[C@H](O)c1ccnc2ccccc12 (stereo partly drawn) [CD 2,4F] | 6.1 ± 0.5 |
| C=CC1C[N+]2(Cc3c(F)cccc3F)CCC1C[C@H]2[C@H](O)c1ccnc2ccccc12 (stereo partly drawn) [CD 2,6F] | 9.9 ± 0.4 |
| C=CC1C[N+]2(Cc3c(F)cccc3Cl)CCC1C[C@H]2[C@H](O)c1ccnc2ccccc12 (stereo partly drawn) [CD 2Cl-6F, N-(2-chloro-6-fluorobenzyl)cinchonidinium bromide] | 5 ± 0.3 |
| C=CC1C[N+]2(Cc3ccc(Br)cc3F)CCC1C[C@H]2[C@H](O)c1ccnc2ccccc12 (stereo partly drawn) [CD 2F-4Br, N-(2-fluoro-4-bromobenzyl)cinchonidinium bromide] | 0.68 ± 0.05 |
| C=CC1C[N+]2(Cc3c(F)cccc3C(F)(F)F)CCC1C[C@H]2[C@H](O)c1ccnc2ccccc12 (stereo partly drawn) [CD 2F-6CF3, N-(2-fluoro-6-trifluoromethylbenzyl)cinchonidinium bromide] | 5.7 ± 0.6 |
| C=CC1C[N+]2(Cc3ccccc3F)CCC1C[C@H]2[C@H](O)c1ccnc2ccccc12 (stereo partly drawn) [CD 2F] | 0.82 ± 0.03 |
| C=CC1C[N+]2(Cc3ccc(F)c(F)c3)CCC1C[C@H]2[C@H](O)c1ccnc2ccccc12 (stereo partly drawn) [CD 3,4F] | 1.3 ± 0.1 |
| C=CC1C[N+]2(Cc3cc(F)cc(F)c3)CCC1C[C@H]2[C@H](O)c1ccnc2ccccc12 (stereo partly drawn) [CD 3,5F] | 0.081 ± 0.01 |
| C=CC1C[N+]2(Cc3cccc(C(F)(F)F)c3)CCC1C[C@H]2[C@H](O)c1ccnc2ccccc12 (stereo partly drawn) [CD 3CF3] | 2.4 ± 0.1 |
| C=CC1C[N+]2(Cc3cccc(F)c3)CCC1C[C@H]2[C@H](O)c1ccnc2ccccc12 (stereo partly drawn) [CD 3F, N-(meta-fluorobenzyl)cinchonidinium bromide] | 0.075 ± 0.005 |
| C=CC1C[N+]2(Cc3cccc(OC(F)(F)F)c3)CCC1C[C@H]2[C@H](O)c1ccnc2ccccc12 (stereo partly drawn) [CD 3OCF3] | 7.4 ± 0.4 |
| C=CC1C[N+]2(Cc3ccc(C(F)(F)F)cc3)CCC1C[C@H]2[C@H](O)c1ccnc2ccccc12 (stereo partly drawn) [CD 4CF3] | 2 ± 0.1 |
| C=CC1C[N+]2(Cc3ccc(F)cc3)CCC1C[C@H]2[C@H](O)c1ccnc2ccccc12 (stereo partly drawn) [CD 4F] | 1.5 ± 0.1 |
| C=CC1C[N+]2(Cc3ccc(OC(F)(F)F)cc3)CCC1C[C@H]2[C@H](O)c1ccnc2ccccc12 (stereo partly drawn) [CD 4OCF3] | 7.6 ± 0.5 |
| C=CC1C[N+]2(Cc3ccccc3)CCC1C[C@H]2[C@H](O)c1ccnc2ccccc12 (stereo partly drawn) [CD Bzl] | 0.075 ± 0.007 |
| C=CC1C[N+]2(Cc3cccc(F)c3F)CCC1C[C@@H]2[C@@H](O)c1ccnc2ccccc12 (stereo partly drawn) [CN 2,3F, N-(2,3-difluorobenzyl)cinchoninium bromide] | 9.6 ± 0.4 |
| C=CC1C[N+]2(Cc3ccc(F)cc3F)CCC1C[C@@H]2[C@@H](O)c1ccnc2ccccc12 (stereo partly drawn) [CN 2,4F, N-(2,4-difluorobenzyl)cinchoninium bromide] | 6 ± 0.2 |
| C=CC1C[N+]2(Cc3c(F)cccc3F)CCC1C[C@@H]2[C@@H](O)c1ccnc2ccccc12 (stereo partly drawn) [CN 2,6F, N-(2,6-difluorobenzyl)cinchoninium bromide] | 5.2 ± 0.2 |

From paper PMC9610298, “Synthesis, Biological Evaluation and Machine Learning Prediction Model for Fluorinated Cinchona Alkaloid-Based Derivatives as Cholinesterase Inhibitors” (Pharmaceuticals, 2022)
